In the NIST ThermoML archive (doi:10.1021/je200659c):
± gives the expanded uncertainty stated by the source.

How the values were obtained:
[1] = xn = mol fraction of the nth substance listed; conditions: Maximal bubble pressure
[2] = Maximal bubble pressure

COS(=O)(=O)[O-].Cn1cc[n+](C)c1 [1,3-dimethylimidazolium methylsulfate] + O
[1]
Conditions	surface tension liquid-gas [mN/m]
297 K, x1 = 0.008	70.6 ± 0.4
297.1 K, x1 = 0.025	69.5 ± 0.5
297.3 K, x1 = 0.055	68.2 ± 0.6
297.6 K, x1 = 0.093	67.3 ± 0.7
297.6 K, x1 = 0.141	66.4 ± 0.8
297.7 K, x1 = 0.183	65.7 ± 0.6
298 K, x1 = 0.222	65.3 ± 0.6
298.1 K, x1 = 0.261	64.7 ± 1.3
298.1 K, x1 = 0.292	64.7 ± 1.1

CCn1cc[n+](C)c1.CS(=O)(=O)[O-] [1-ethyl-3-methylimidazolium methanesulfonate] + O
[1]
Conditions	surface tension liquid-gas [mN/m]
300 K, x1 = 0.002	72.1 ± 1.1
300 K, x1 = 0.03	69.8 ± 1
300.1 K, x1 = 0.025	70.4 ± 0.7
300.2 K, x1 = 0.004	71.6 ± 1.1
300.2 K, x1 = 0.006	71.4 ± 0.7
300.3 K, x1 = 0.01	71.1 ± 0.6
300.4 K, x1 = 0.015	70.7 ± 0.7
300.4 K, x1 = 0.019	70.5 ± 0.6
301 K, x1 = 0.065	67.9 ± 1.1
301.2 K, x1 = 0.274	60.7 ± 0.8
301.3 K, x1 = 0.002	71.4 ± 0.6
301.3 K, x1 = 0.004	70.9 ± 0.7
301.3 K, x1 = 0.007	70.4 ± 0.7
301.3 K, x1 = 0.013	69.8 ± 0.7
301.3 K, x1 = 0.019	69.2 ± 0.8
301.3 K, x1 = 0.026	68.8 ± 0.8
301.3 K, x1 = 0.032	68.4 ± 0.8
301.3 K, x1 = 0.376	59.2 ± 0.5
301.4 K, x1 = 0.01	70.1 ± 0.7
301.7 K, x1 = 0.112	65.6 ± 0.7
301.7 K, x1 = 0.485	58.1 ± 0.5
302.4 K, x1 = 0.08	66 ± 0.8
302.7 K, x1 = 0.133	63.5 ± 0.8
302.7 K, x1 = 0.181	62.9 ± 2.1
302.9 K, x1 = 0.199	61.2 ± 1.8
303.2 K, x1 = 0.474	57.3 ± 0.6
303.3 K, x1 = 0.388	57.7 ± 0.7
303.8 K, x1 = 0.284	58.7 ± 1.5

O [water] + CCCCCCn1cc[n+](C)c1.[Cl-]
Conditions	surface tension liquid-gas [mN/m]
[1], 297.7 K, x2 = 0	70.9 ± 0.5

O [water] + CCn1cc[n+](C)c1.CS(=O)(=O)[O-]
[1], x2 = 0
Conditions	surface tension liquid-gas [mN/m]
300 K	71.6 ± 1.1
301.2 K	71.4 ± 0.7

O [water]
[2]
Conditions	surface tension liquid-gas [mN/m]
296.8 K	71.1 ± 0.6
297 K	71.9 ± 2.8
297.7 K	70.9 ± 0.5
300 K	71.6 ± 1.1
301.2 K	71.4 ± 0.7
304.3 K	70.7 ± 0.6
312.4 K	69.4 ± 0.5
321.3 K	68.1 ± 1.4

O [water] + CCCCn1cc[n+](C)c1.CS(=O)(=O)[O-]
[1], x2 = 0
Conditions	surface tension liquid-gas [mN/m]
297 K	71.9 ± 2.8
304.3 K	70.7 ± 0.6
312.4 K	69.4 ± 0.5
321.3 K	68.1 ± 1.4

CCCCn1cc[n+](C)c1.CS(=O)(=O)[O-] [1-butyl-3-methylimidazolium methanesulfonate] + O
[1]
Conditions	surface tension liquid-gas [mN/m]
297.5 K, x1 = 0.004	65.1 ± 0.7
297.7 K, x1 = 0.014	62.9 ± 0.7
297.8 K, x1 = 0.026	59.6 ± 0.7
297.8 K, x1 = 0.064	53.6 ± 1.2
298 K, x1 = 0.115	50.3 ± 0.7
298 K, x1 = 0.256	45.9 ± 0.5
298.2 K, x1 = 0.173	48.2 ± 0.7
298.2 K, x1 = 0.24	46.7 ± 0.7
298.2 K, x1 = 0.291	45.1 ± 0.3
304.7 K, x1 = 0.005	66.3 ± 0.5
304.8 K, x1 = 0.177	47.9 ± 0.7
304.9 K, x1 = 0.011	63.5 ± 0.5
305.1 K, x1 = 0.109	50.8 ± 0.9
305.1 K, x1 = 0.141	49.5 ± 0.4
305.1 K, x1 = 0.16	48.5 ± 0.5
305.2 K, x1 = 0.017	61.3 ± 0.5
305.2 K, x1 = 0.08	52.4 ± 1.6
305.3 K, x1 = 0.052	55.3 ± 0.5
305.4 K, x1 = 0.027	59.2 ± 0.5
312.2 K, x1 = 0.092	51.4 ± 0.5
312.2 K, x1 = 0.184	47.8 ± 1
312.3 K, x1 = 0.145	49.4 ± 1
312.4 K, x1 = 0.069	53.2 ± 0.5
312.6 K, x1 = 0.005	65.3 ± 0.5
312.6 K, x1 = 0.019	60.3 ± 1.1
312.8 K, x1 = 0.01	62.9 ± 0.5
312.8 K, x1 = 0.041	56.3 ± 1.8
318.1 K, x1 = 0.339	44.2 ± 0.5
318.3 K, x1 = 0.259	45.5 ± 1
318.7 K, x1 = 0.165	47.7 ± 0.7
320.1 K, x1 = 0.034	56.1 ± 0.7
320.1 K, x1 = 0.083	51.4 ± 0.4
320.8 K, x1 = 0.023	58.2 ± 0.7
321.3 K, x1 = 0.013	61 ± 0.9
321.8 K, x1 = 0.004	64.8 ± 1.4

CCCCCCn1cc[n+](C)c1.[Cl-] [1-hexyl-3-methylimidazolium chloride] + O
[1]
Conditions	surface tension liquid-gas [mN/m]
297.2 K, x1 = 0.003	61.8 ± 0.4
297.4 K, x1 = 0.009	55.2 ± 0.4
297.4 K, x1 = 0.02	50.5 ± 0.7
297.6 K, x1 = 0.045	47.6 ± 0.8
297.7 K, x1 = 0.013	52.8 ± 1
297.8 K, x1 = 0.073	46 ± 0.3
297.9 K, x1 = 0.121	43.8 ± 0.3
298 K, x1 = 0.092	45 ± 0.3
298.2 K, x1 = 0.143	43.2 ± 0.3

O [water] + COS(=O)(=O)[O-].Cn1cc[n+](C)c1
Conditions	surface tension liquid-gas [mN/m]
[1], 296.8 K, x2 = 0	71.1 ± 0.6
